# Key:
# KRAS G12D = KRAS G12D (Homo sapiens (Human), UniProt P01116, G12D); experiment: KRAS G12D LoEnz Biochemical Assay, BODIPY-GDP Exchange TR-FRET (SOS1-mediated nucleotide exchange); conditions: read-out: KRas (G12D) GDP HTRF IC50
# KRAS WT = KRAS WT (Homo sapiens (Human), UniProt P01116); experiment: KRAS WT Biochemical Assay, BODIPY-GDP Exchange TR-FRET (Example 502; 0.06 nM KRAS WT, 15 nM GDP, 300 nM SOS1, 120-minute incubation); conditions: read-out: KRas HTRF IC50
# Procedure, shortened: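 Biotin-tagged recombinant KRAS WT (0.06 nM) preloaded with 15 nM GDP and Tb-streptavidin, 10 min RT, then exchange started with 300 nM SOS1 plus 300 nM BODIPY-GDP in HEPES pH 7.5 buffer with MgCl2. TR-FRET 520/490 ratio read after 120 min; normalized to DMSO and full-inhibition control; IC50 from 4-parameter fit.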
# Sequence of KRAS G12D (P01116-2 other isoform, or with tags, fused parts or gaps G12D): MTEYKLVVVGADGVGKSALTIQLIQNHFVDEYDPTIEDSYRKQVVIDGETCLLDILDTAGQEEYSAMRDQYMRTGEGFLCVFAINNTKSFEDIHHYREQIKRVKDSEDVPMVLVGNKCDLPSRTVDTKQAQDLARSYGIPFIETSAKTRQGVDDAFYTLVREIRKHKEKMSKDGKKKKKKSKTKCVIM
# Sequence of KRAS WT (P01116-2 other isoform, or with tags, fused parts or gaps): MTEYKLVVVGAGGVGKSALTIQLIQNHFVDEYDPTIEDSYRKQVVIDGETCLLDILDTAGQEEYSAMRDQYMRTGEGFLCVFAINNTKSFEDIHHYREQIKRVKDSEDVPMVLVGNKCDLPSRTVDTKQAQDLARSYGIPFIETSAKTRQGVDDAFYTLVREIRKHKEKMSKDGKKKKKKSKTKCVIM
Compound,IC50 (KRAS G12D) [nM],IC50 (KRAS WT) [nM]
"COc1cc2ccccc2c(-c2nc3c4c(nc(OC[C@]56CCN5CC(F)(F)C6)nc4c2F)N2C[C@H]4CC[C@H](N4)[C@H]2[C@H](C)O3)n1 [Compound 89, (5S,5aS,6S,9R)-12-(((R)-3,3-Difluoro-1-azabicyclo[3.2.0]heptan-5-yl)methoxy)-1-fluoro-2-(3-methoxyisoquinolin-1-yl)-5-methyl-5a,6,7,8,9,10-hexahydro-5H-4-oxa-3,10a,11,13,14-pentaaza-6,9-methanonaphtho[1,8-ab]heptalene]",912,1650
"C[C@@H]1Oc2nc(-c3c(C(F)(F)F)cc(F)c(N)c3F)c(F)c3nc(OC[C@@]45CCCN4C[C@H](F)C5)nc(c23)N2C[C@H]3CC[C@H](N3)[C@@H]12 [Compound 90, 2,6-Difluoro-3-((5S,5aS,6S,9R)-1-fluoro-12-(((2R,7aS)-2-fluorotetrahydro-1H-pyrrolizin-7a(5H)-yl)methoxy)-5-methyl-5a,6,7,8,9,10-hexahydro-5H-4-oxa-3,10a,11,13,14-pentaaza-6,9-methanonaphtho[1,8-ab]heptalen-2-yl)-4-(trifluoromethyl)aniline]",0.47,71.6
"Cc1c(F)c(N)c(F)c(-c2nc3c4c(nc(OC[C@@]56CCCN5C[C@H](F)C6)nc4c2F)N2C[C@H]4CC[C@H](N4)[C@H]2[C@H](C)O3)c1C(F)(F)F [Compound 91, 2,6-Difluoro-3-((5S,5aS,6S,9R)-1-fluoro-12-(((2R,7aS)-2-fluorotetrahydro-1H-pyrrolizin-7a(5H)-yl)methoxy)-5-methyl-5a,6,7,8,9,10-hexahydro-5H-4-oxa-3,10a,11,13,14-pentaaza-6,9-methanonaphtho[1,8-ab]heptalen-2-yl)-5-methyl-4-(trifluoromethyl)aniline]",0.182,5.71
"Cc1c(F)c(N)c(F)c(-c2nc3c4c(nc(OC[C@@H]5CC[C@H]6COCCN65)nc4c2F)N2C[C@H]4CC[C@H](N4)[C@H]2[C@H](C)O3)c1C(F)(F)F [Compound 96, 2,6-Difluoro-3-((5S,5aS,6S,9R)-1-fluoro-12-(((6S,8aS)-hexahydro-1H-pyrrolo[2,1-c][1,4]oxazin-6-yl)methoxy)-5-methyl-5a,6,7,8,9,10-hexahydro-5H-4-oxa-3,10a,11,13,14-pentaaza-6,9-methanonaphtho[1,8-ab]heptalen-2-yl)-5-methyl-4-(trifluoromethyl)aniline]",0.433,75.8
"Cc1cc(N)c(F)c(-c2nc3c4c(nc(OC[C@@H]5CC[C@H]6COCCN65)nc4c2F)N2C[C@H]4CC[C@H](N4)[C@H]2[C@H](C)O3)c1C(F)(F)F [Compound 97, 2-Fluoro-3-((5S,5aS,6S,9R)-1-fluoro-12-(((6S,8aS)-hexahydro-1H-pyrrolo[2,1-c][1,4]oxazin-6-yl)methoxy)-5-methyl-5a,6,7,8,9,10-hexahydro-5H-4-oxa-3,10a,11,13,14-pentaaza-6,9-methanonaphtho[1,8-ab]heptalen-2-yl)-5-methyl-4-(trifluoromethyl)aniline]",0.37,43.7
"Cc1cc(N)c(F)c(-c2nc3c4c(nc(OC[C@@H]5CC[C@H]6COCCN65)nc4c2F)N2C[C@H]4CC[C@H](N4)[C@H]2[C@H](C)O3)c1C1CC1 [Compound 98, 4-Cyclopropyl-2-fluoro-3-((5S,5aS,6S,9R)-1-fluoro-12-(((6S,8aS)-hexahydro-1H-pyrrolo[2,1-c][1,4]oxazin-6-yl)methoxy)-5-methyl-5a,6,7,8,9,10-hexahydro-5H-4-oxa-3,10a,11,13,14-pentaaza-6,9-methanonaphtho[1,8-ab]heptalen-2-yl)-5-methylaniline]",4.25,553
"Cc1cc(N)c(F)c(-c2nc3c4c(nc(OC[C@@H]5CC[C@H]6COCCN65)nc4c2F)N2C[C@H]4CC[C@H](N4)[C@H]2[C@H](C)O3)c1C=C(F)F [Compound 99, 4-(2,2-Difluorovinyl)-2-fluoro-3-((5S,5aS,6S,9R)-1-fluoro-12-(((6S,8aS)-hexahydro-1H-pyrrolo[2,1-c][1,4]oxazin-6-yl)methoxy)-5-methyl-5a,6,7,8,9,10-hexahydro-5H-4-oxa-3,10a,11,13,14-pentaaza-6,9-methanonaphtho[1,8-ab]heptalen-2-yl)-5-methylaniline]",2.09,506
"Cc1cc(N)c(F)c(-c2nc3c4c(nc(OC[C@@H]5CC[C@H]6COCCN65)nc4c2F)N2C[C@H]4CC[C@H](N4)[C@H]2[C@H](C)O3)c1C(F)(F)C(F)(F)F [Compound 100, 2-Fluoro-3-((5S,5aS,6S,9R)-1-fluoro-12-(((6S,8aS)-hexahydro-1H-pyrrolo[2,1-c][1,4]oxazin-6-yl)methoxy)-5-methyl-5a,6,7,8,9,10-hexahydro-5H-4-oxa-3,10a,11,13,14-pentaaza-6,9-methanonaphtho[1,8-ab]heptalen-2-yl)-5-methyl-4-(perfluoroethyl)aniline]",1.49,495
"Cc1cc(N)c(F)c(-c2nc3c4c(nc(OC[C@@H]5CC[C@H]6COCCN65)nc4c2F)N2C[C@H]4CC[C@H](N4)[C@H]2[C@H](C)O3)c1Cl [Compound 101, 4-Chloro-2-fluoro-3-((5S,5aS,6S,9R)-1-fluoro-12-(((6S,8aS)-hexahydro-1H-pyrrolo[2,1-c][1,4]oxazin-6-yl)methoxy)-5-methyl-5a,6,7,8,9,10-hexahydro-5H-4-oxa-3,10a,11,13,14-pentaaza-6,9-methanonaphtho[1,8-ab]heptalen-2-yl)-5-methylaniline]",3.19,906
"Cc1cc(N)c(Cl)c(-c2nc3c4c(nc(OC[C@@H]5CC[C@H]6COCCN65)nc4c2F)N2C[C@H]4CC[C@H](N4)[C@H]2[C@H](C)O3)c1C(F)(F)F [Compound 103, 2-Chloro-3-((5S,5aS,6S,9R)-1-fluoro-12-(((6S,8aS)-hexahydro-1H-pyrrolo[2,1-c][1,4]oxazin-6-yl)methoxy)-5-methyl-5a,6,7,8,9,10-hexahydro-5H-4-oxa-3,10a,11,13,14-pentaaza-6,9-methanonaphtho[1,8-ab]heptalen-2-yl)-5-methyl-4-(trifluoromethyl)aniline]",0.86,224
"C[C@@H]1Oc2nc(-c3cc(N)c(F)c(Cl)c3C(F)(F)F)c(F)c3nc(OC[C@@]45CCCN4C[C@H](F)C5)nc(c23)N2C[C@H]3CC[C@H](N3)[C@@H]12 [Compound 104, 3-Chloro-2-fluoro-5-((5S,5aS,6S,9R)-1-fluoro-12-(((2R,7aS)-2-fluorotetrahydro-1H-pyrrolizin-7a(5H)-yl)methoxy)-5-methyl-5a,6,7,8,9,10-hexahydro-5H-4-oxa-3,10a,11,13,14-pentaaza-6,9-methanonaphtho[1,8-ab]heptalen-2-yl)-4-(trifluoromethyl)aniline]",0.05,0.71
"C[C@@H]1Oc2nc(-c3[nH]c(=O)cc4ccccc34)c(F)c3nc(OC[C@@]45CCCN4C[C@H](F)C5)nc(c23)N2C[C@H]3CC[C@H](N3)[C@@H]12 [Compound 105, 1-((5S,5aS,6S,9R)-1-Fluoro-12-(((2R,7aS)-2-fluorotetrahydro-1H-pyrrolizin-7a(5H)-yl)methoxy)-5-methyl-5a,6,7,8,9,10-hexahydro-5H-4-oxa-3,10a,11,13,14-pentaaza-6,9-methanonaphtho[1,8-ab]heptalen-2-yl)isoquinolin-3(2H)-one]",141,9700
"C[C@@H]1Oc2nc(-c3c(C#N)c(N)c(F)c(F)c3C(F)(F)F)c(F)c3nc(OC[C@@]45CCCN4C[C@H](F)C5)nc(c23)N2C[C@H]3CC[C@H](N3)[C@@H]12 [Compound 107, 2-Amino-3,4-difluoro-6-((5S,5aS,6S,9R)-1-fluoro-12-(((2R,7aS)-2-fluorotetrahydro-1H-pyrrolizin-7a(5H)-yl)methoxy)-5-methyl-5a,6,7,8,9,10-hexahydro-5H-4-oxa-3,10a,11,13,14-pentaaza-6,9-methanonaphtho[1,8-ab]heptalen-2-yl)-5-(trifluoromethyl)benzonitrile]",1.39,167
"Cc1cc(N)c(F)c(-c2nc3c4c(nc(OC[C@@]56CCCN5C[C@H](F)C6)nc4c2F)N2C[C@H]4CC[C@H](N4)[C@H]2[C@H](C)O3)c1I [Compound 108, 2-Fluoro-3-((5S,5aS,6S,9R)-1-fluoro-12-(((2R,7aS)-2-fluorotetrahydro-1H-pyrrolizin-7a(5H)-yl)methoxy)-5-methyl-5a,6,7,8,9,10-hexahydro-5H-4-oxa-3,10a,11,13,14-pentaaza-6,9-methanonaphtho[1,8-ab]heptalen-2-yl)-4-iodo-5-methylaniline]",0.325,37.6
"C#Cc1c(F)ccc2cc(N)cc(-c3nc4c5c(nc(OC[C@]67CCN6CC(F)(F)C7)nc5c3F)N3C[C@H]5CC[C@H](N5)[C@H]3[C@H](C)O4)c12 [Compound 110, 4-((5S,5aS,6S,9R)-12-(((R)-3,3-Difluoro-1-azabicyclo[3.2.0]heptan-5-yl)methoxy)-1-fluoro-5-methyl-5a,6,7,8,9,10-hexahydro-5H-4-oxa-3,10a,11,13,14-pentaaza-6,9-methanonaphtho[1,8-ab]heptalen-2-yl)-5-ethynyl-6-fluoronaphthalen-2-amine]",0.15,7.75
"Cc1c(F)c(N)cc(-c2nc3c4c(nc(OC[C@@H]5CC[C@H]6COCCN65)nc4c2F)N2C[C@H]4CC[C@H](N4)[C@H]2[C@H](C)O3)c1Cl [Compound 111, 4-Chloro-2-fluoro-5-((5S,5aS,6S,9R)-1-fluoro-12-(((6S,8aS)-hexahydro-1H-pyrrolo[2,1-c][1,4]oxazin-6-yl)methoxy)-5-methyl-5a,6,7,8,9,10-hexahydro-5H-4-oxa-3,10a,11,13,14-pentaaza-6,9-methanonaphtho[1,8-ab]heptalen-2-yl)-3-methylaniline]",0.31,108
